The target in experiment [1] is T1, human SOD1 protein (#HY-P71048, MCE) (Homo sapiens, UniProt P00441).
T1 construct: commercial human SOD1 protein (MCE); amine-coupled to CM5 chip
Put plainly: SPR (Biacore T200, CM5 chip, SOD1 immobilised). The class given is binding.

For a further experiment, the target named is T2, SOD1 (A549 cells) (Homo sapiens, UniProt P00441).
T2 construct: endogenous full-length SOD1 in A549 cells, read by western blot
Briefly: CETSA, western blot. The class given is biochemical. The following applies: 10 μM DIPY, 30 min; A549 cells pretreated with RSL3 5 μM for 8 h; 45-72 °C. Background: In western blotting, separated proteins are transferred to a membrane and probed.

T1 sequence (P00441 2-154, one chain of several): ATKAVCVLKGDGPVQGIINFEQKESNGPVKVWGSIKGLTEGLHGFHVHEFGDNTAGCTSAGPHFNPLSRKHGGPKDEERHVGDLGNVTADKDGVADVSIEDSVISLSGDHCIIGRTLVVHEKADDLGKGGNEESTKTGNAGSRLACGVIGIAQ
T2 sequence (P00441 2-154): as the sequence (P00441 2-154, one chain of several) above

On to `OCCN(CCO)c1nc(N2CCCCC2)c2nc(N(CCO)CCO)nc(N3CCCCC3)c2n1` [Dipyridamole], for which binding in experiment [1] was put at a Kd of 8.83 µM. Moreover, the “thermal stability (CETSA)” value on SOD1 (A549 cells) is “DIPY elevated the thermal stability of SOD1 compared with the control group”.

The record behind these values is paper PMC11610143, “Characterization of dipyridamole as a novel ferroptosis inhibitor and its therapeutic potential in acute respiratory distress syndrome management” (Theranostics, 2024).
